The results in this text go back to PubChem BioAssay (NCI).

Structures are written as SMILES.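 Growth conditions: 96-well plates. Treatment: test compound, 48 hours, 5 concentrations. Analysis: linear interpolation between bracketing concentrations; unreached endpoints set to highest concentration. At the TGI there is no net growth.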 Where a SMILES comes first, the peptide text is derived from it. The star is where a group is joined. Cbz = O=C(OCc1ccccc1)*

Common to all, as to assay: inhibition of tumour cell growth, NCI panel, 48 h
Test [1] deals with U251 CNS.
Test [2] concerns MALME-3M melanoma.
The subject of test [3] is ACHN renal.
For test [4], the system named is MOLT-4 leukemia.
Test [5] has as its system K-562 leukemia.
Test [6] relates to HOP-62 NSCLC.
Test [7] concerns SF-295 CNS.
Test [8] concerns HT29 colon.
Test [9] deals with HL-60(TB) leukemia.
The test system of test [10] is HOP-92 NSCLC.
Test [11] deals with CCRF-CEM leukemia.
In test [12] the test system is RXF 393 renal.
Test [13] has as its system RPMI-8226 leukemia.
Test [14] deals with TK-10 renal.

Turning to `CN(C)CCCC12CCCCC1=Nc1ccccc12` (centres undefined), the TGI in test [1], in test [2], in test [3], in test [4], in test [5] and in test [6] was above 100 µM in each case. The TGI was above 100 µM in test [7]; above 100 µM in test [8]; 76.3 µM in test [9]; above 100 µM in [10]; above 100 µM in [11]; above 100 µM in [12]. Also, the TGI in test [13] and in [14] was above 100 µM in each case.

Turning to `Cc1nc2c(nc1C)-c1[nH]c3c(c1C(=O)C2=O)CCCC3=O`, the TGI in test [1] was 2.92 µM; in [2] it was 2.82 µM; in test [3] it was 7.35 µM; in [4] it was 5.67 µM; in test [5], 5.59 µM; in test [6] it was 6.76 µM. Moreover, the TGI in test [7] worked out at 3.31 µM; in [8], 16.2 µM; in test [9], 5.78 µM; in test [10] it was 3.66 µM; in test [11], 5.16 µM; in test [12] it was 2.41 µM. For the same compound, the TGI in test [13] was 3.22 µM; in test [14], 34.8 µM.

On to `Cc1ccccc1N1C(=O)C2C=CC(n3[nH]c(=O)n(Cc4ccccc4)c3=O)CC2C1=O` (centres undefined), for which the TGI in test [1], in test [2], in test [3], in test [4], in [5] and in [6] was above 100 µM in each case. For the same compound, the TGI in [7], in test [8], in [9], in test [10], in test [11] and in [12] was above 100 µM in each case. Further, the TGI in test [13] and in test [14] was above 100 µM in each case.

`O=c1[nH]nc(Cc2ccccc2)n1/N=C/c1ccccc1O`: the TGI in [1] was above 100 µM; in test [2], above 100 µM; in test [3], above 100 µM; in test [4], above 100 µM; in [5] it was above 100 µM; in [6], 99.8 µM. In addition, the TGI in test [7] was above 100 µM; in [8], above 100 µM; in test [9] it was above 100 µM; in [10] it was above 100 µM; in test [11] it was above 100 µM; in [12], 53.5 µM. The TGI in test [13] and in [14] was above 100 µM each time.

Regarding `O=C(O)CCC(NC(=O)OCc1ccccc1)C(=O)NC(Cc1cnc[nH]1)C(=O)O` (stereo not drawn) (Cbz-Glu-His-OH; configuration not given here), the TGI in test [1], in test [2], in test [3], in test [4], in test [5] and in test [6] was above 100 µM in each case. Moreover, the TGI in [7], in test [8], in [9], in test [10], in [11] and in [12] was above 100 µM throughout. For the same compound, the TGI in test [13] and in test [14] was above 100 µM throughout.

Take `CC(C)=CC[C@]12CCN[C@H]1N(S(=O)(=O)c1ccccc1)c1ccccc12`: the TGI in test [1] was determined as 30.7 µM; in test [2], 32.7 µM; in test [3], 50.7 µM; in test [4], 75.8 µM; in test [5] it was 56.9 µM; in [6], 29.1 µM. Moreover, the TGI in test [7] is 34.5 µM; in test [8], 39 µM; in test [9], 45.6 µM; in [10] it was 28.3 µM; in test [11], above 100 µM; in [12], 27.6 µM. In addition, the TGI was 45.9 µM in test [13] and above 100 µM in test [14].
